The values below come from patent US8143296B2, “Thiazole-based compound and inhibitor of T-type calcium channel containing the same” (Korea Institute of Science and Technology, priority 2006, dated 2012).

The target in series [1] is T1, α1G T-type calcium channel (Homo sapiens, UniProt O43497).
T1 construct: host or cells: HEK293
Description: Assay for % inhibiting activity against T-type calcium channel using FDSS6000. The series is classed as cell-based. The note with it: HEK293 cells expressing α1G; for inhibition at 10 µM: HEK293, 10 μM. As to the method:
In the present invention, in order to search an efficient inhibitor against T-type calcium channel, a primary assay for T-type calcium channel inhibiting activity was conducted by a high-efficient assay using FDSS6000, wherein mammal HEK293 cell lines (originated from human kidney carcinoma cells) which specifically expresses α1G of T-type calcium channel was used for primary assay. Through the primary assay, compounds which show meaningful inhibition effects were selected. The selected compounds were used in a second assay for T-type calcium channel inhibiting activity using electrophysiological whole cell patch clamp method, wherein mammal HEK293 cell lines (originated from human kidney carcinoma cells) which specifically expresses α1G of T-type calcium channel was used for the second assay.
At 12-24 hours before being used for this assay, cells of HEK293 cell line (α1G cell line: KCTC 10519BP, Korean Collection for Type Cultures), which stably express α1G T-type calcium channel and Kir2.1, were sub-cultured in a poly-L-lysine treated 96-well plate with the density of 4×10^4 per a well using a 96-well cell dispenser (Titertek). On the of assay, the 96-well plate to which the cells were attached were washed three times with HEPES buffer solution (150 mM of NaCl, 5 mM of KCl, 1 mM of MgCl2, 2 mM of CaCl2, 10 mM of HEPES, 10 mM of glucose; pH 7.4) using a 96-well plate automatic washing device (Bio Tek), then reacted with HEPES buffer solution containing 5 μM fluo-3/AM and 0.001% Pluronic F-127 under room temperature for 1 hour, to label with fluorescent dye, and then further washed two times with HEPES buffer solution.
Thereafter, at 10 minutes before the measurement using device FDSS6000, a washing with HEPES buffer solution containing 10 mM CaCl2 was conducted once more, and the final volume was adjusted to 81 μl. Besides the above 96-well plate containing the cells, additional two drug 96-well plates were provided, wherein the 96-well plates contain inhibiting drug and KCl (final concentration: 75 mM) for activating T-type calcium channel, respectively. Since most of cell-based HTS devices are equipped with a liquid application system for injection of drug, but have no liquid sucking system, the inhibiting drug to be tested and KCl were respectively provided at the five-times higher concentration in 10 mM CaCl2 HEPES buffer solution at the amount of 27 μl, diluted five-times at the final cell plate volume of 135 μl, and then used in this test. The concrete method of measurement using FDSS6000 was as follows: After recording the reference value of 20 seconds, the change of intracellular Ca^2+ concentration which induced by treatment of the inhibiting drug to be tested for 75 seconds followed by administration of KCl was measured, wherein the percentage (%) inhibition effect of the test drug, through estimating the area of ratio value of 340/380 in the control without treatment of the test drug as 100%. As a reference drug, mibefradil was used.
For accurate calcium-imagination, the light source of 4 xenon lamps in FDSS6000 were radiated to make the cells exposed selectively to the excitation wavelength (340 nm and 380 nm) by computer-controlled filter wheel. Data was obtained at interval of each 1.23 second. The emitter fluorescence light inflowed through long-pass filter was obtained as an average 340/380 ratio value for each well in the 96-wells by using CCD camera and digital fluorescence analyzer in FDSS6000. All image data and analyses were obtained by using FDSS6000-exclusive program provide from Hamamatsu Photonics.

Setting [2] is: Table 3 (Chemical Formula 2 series).
The mark [3] stands for this setting: Table 3 (Chemical Formula 2 series), hydrochloride.
[4] abbreviates: Table 4 (Chemical Formula 3 series).

Structures can show the parent of a compound that is named as a salt.

T1 sequence (O43497 whole entry): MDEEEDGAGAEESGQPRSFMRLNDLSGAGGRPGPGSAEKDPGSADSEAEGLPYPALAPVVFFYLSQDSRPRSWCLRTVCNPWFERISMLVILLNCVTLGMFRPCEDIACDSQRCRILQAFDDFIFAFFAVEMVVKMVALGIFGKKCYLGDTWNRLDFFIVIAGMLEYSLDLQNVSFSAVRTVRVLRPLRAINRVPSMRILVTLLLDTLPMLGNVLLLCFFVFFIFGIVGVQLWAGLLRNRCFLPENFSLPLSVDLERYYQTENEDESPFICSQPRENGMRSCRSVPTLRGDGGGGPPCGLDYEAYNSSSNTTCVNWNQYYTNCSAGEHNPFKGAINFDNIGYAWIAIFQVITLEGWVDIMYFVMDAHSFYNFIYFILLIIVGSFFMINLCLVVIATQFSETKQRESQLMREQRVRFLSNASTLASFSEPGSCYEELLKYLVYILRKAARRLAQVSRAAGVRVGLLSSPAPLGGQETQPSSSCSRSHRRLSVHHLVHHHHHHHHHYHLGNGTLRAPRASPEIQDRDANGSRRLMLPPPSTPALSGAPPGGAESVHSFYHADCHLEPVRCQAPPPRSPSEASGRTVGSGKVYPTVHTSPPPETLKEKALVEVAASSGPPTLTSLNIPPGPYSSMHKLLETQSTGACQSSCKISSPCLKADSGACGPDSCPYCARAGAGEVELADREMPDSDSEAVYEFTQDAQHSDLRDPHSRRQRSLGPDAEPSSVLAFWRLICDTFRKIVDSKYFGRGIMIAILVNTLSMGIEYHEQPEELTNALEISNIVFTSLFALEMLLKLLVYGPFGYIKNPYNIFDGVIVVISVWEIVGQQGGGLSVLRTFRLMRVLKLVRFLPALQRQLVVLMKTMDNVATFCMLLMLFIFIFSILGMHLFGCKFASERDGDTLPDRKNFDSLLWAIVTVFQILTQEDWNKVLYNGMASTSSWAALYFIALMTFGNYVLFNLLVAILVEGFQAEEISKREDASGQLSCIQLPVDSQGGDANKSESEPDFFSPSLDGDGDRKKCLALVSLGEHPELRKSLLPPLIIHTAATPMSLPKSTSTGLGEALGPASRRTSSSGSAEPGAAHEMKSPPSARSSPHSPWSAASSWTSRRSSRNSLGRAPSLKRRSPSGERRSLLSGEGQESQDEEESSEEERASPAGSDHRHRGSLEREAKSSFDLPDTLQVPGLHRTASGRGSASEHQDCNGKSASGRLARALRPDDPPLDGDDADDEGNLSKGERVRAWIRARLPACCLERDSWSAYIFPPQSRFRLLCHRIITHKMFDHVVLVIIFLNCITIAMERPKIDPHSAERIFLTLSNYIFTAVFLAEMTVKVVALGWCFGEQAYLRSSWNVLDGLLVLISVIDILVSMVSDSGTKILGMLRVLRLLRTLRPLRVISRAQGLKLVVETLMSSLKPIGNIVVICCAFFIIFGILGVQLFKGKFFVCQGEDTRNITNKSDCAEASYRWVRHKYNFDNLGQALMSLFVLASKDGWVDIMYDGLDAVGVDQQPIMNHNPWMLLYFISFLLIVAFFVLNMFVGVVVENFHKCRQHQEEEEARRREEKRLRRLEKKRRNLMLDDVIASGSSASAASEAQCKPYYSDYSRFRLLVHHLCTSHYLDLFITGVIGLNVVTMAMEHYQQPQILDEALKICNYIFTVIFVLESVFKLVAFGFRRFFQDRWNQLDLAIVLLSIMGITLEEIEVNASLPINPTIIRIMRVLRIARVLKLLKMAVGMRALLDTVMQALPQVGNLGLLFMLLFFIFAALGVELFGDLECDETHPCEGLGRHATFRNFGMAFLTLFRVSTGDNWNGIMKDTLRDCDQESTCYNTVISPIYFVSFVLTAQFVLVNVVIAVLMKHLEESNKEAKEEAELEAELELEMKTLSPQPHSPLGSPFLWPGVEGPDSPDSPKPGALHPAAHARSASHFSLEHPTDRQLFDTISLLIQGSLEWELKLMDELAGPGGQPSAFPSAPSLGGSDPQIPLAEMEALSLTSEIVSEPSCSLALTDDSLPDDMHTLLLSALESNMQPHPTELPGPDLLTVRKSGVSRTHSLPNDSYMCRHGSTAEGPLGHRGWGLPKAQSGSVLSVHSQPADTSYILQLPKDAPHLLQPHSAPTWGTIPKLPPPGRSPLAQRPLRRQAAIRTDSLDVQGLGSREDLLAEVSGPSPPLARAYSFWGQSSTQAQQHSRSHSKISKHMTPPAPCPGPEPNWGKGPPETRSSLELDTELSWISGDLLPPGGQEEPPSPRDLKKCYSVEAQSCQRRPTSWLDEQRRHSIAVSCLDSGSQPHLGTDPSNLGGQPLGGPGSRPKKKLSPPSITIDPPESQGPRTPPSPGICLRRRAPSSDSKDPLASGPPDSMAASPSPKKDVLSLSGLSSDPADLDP

As a reminder, the melting point is the temperature of the solid-liquid transition. Take `Cc1nc(N=C(N)N)sc1Cc1ccc(F)cc1.Cl`: the melting point worked out at 245.6 °C.

By inhibition is commonly meant the percentage by which the read-out fell short of the control. In the case of `NC(N)=Nc1nc(CC(=O)Nc2cc([N+](=O)[O-])ccc2F)cs1` [KHG23168, 2-(2-(diaminomethyleneamino)thiazole-4-yl)-N-(2-fluoro-5-nitrophenyl)acetamide hydrochloride], the inhibition at 10 µM in series [1] (setting [2]) is 21.6%.

Turning to `Cl.NC(N)=Nc1nc(CC(=O)Nc2ccc(F)cc2Cl)cs1` [KHG23169, N-(2-chloro-4-fluorophenyl)-2-(2-(diaminomethyleneamino)thiazole-4-yl)acetamide hydrochloride], the melting point lay in the range of 232.8 to 233.9 °C. Besides, the inhibition at 10 µM in series [1] (setting [2]) was 23.2%.

In turn, `Cc1ccc(NC(=O)Cc2csc(N=C(N)N)n2)cc1Cl.Cl` [KHG23170, N-(3-chloro-4-methylphenyl)-2-(2-(diaminomethyleneamino)thiazole-4-yl)acetamide hydrochloride] displayed a melting point of 238.6 to 240.4 °C. In series [1] (setting [3]), the “% Inhibition [α1G, 10 μM) using FDSS6000” value is 30.68%.

Take `NC(N)=Nc1nc(CC(=O)NCCc2ccc(F)cc2)cs1` [KHG23190, 2-(2-(diaminomethyleneamino)thiazole-4-yl)-N-(4-fluorophenethyl)acetamide hydrochloride]: the inhibition at 10 µM in series [1] (setting [2]) is 21%.

For the molecule `CC(C)c1ccc(NC(=O)Cc2csc(N=C(N)N)n2)cc1` [KHG23379, 2-(2-(diaminomethyleneamino)thiazole-4-yl)-N-(4-isopropylphenyl)acetamide hydrochloride], the inhibition at 10 µM in series [1] (setting [2]) came to 14.7%.

For `NC(N)=Nc1nc(CC(=O)Nc2ccc([N+](=O)[O-])cc2)cs1` [KHG23380, 2-(2-(diaminomethyleneamino)thiazole-4-yl)-N-(4-nitrophenyl)acetamide hydrochloride], in series [1] (setting [2]), the inhibition at 10 µM was 11.4%.

Regarding `CCCCCCCCCCc1ccc(NC(=O)Cc2csc(N=C(N)N)n2)cc1` [KHG23381, N-(4-decylphenyl)-2-(2-(diaminomethyleneamino)thiazole-4-yl)acetamide hydrochloride], in series [1] (setting [2]), the inhibition at 10 µM was 6.2%.

Consider `CCOC(=O)c1cccc(NC(=O)Cc2csc(N=C(N)N)n2)c1` [KHG23382, ethyl 3-(2-(2-(diaminomethyleneamino)thiazole-4-yl)acetamido)benzoate hydrochloride], for which the inhibition at 10 µM in series [1] (setting [2]) came out at 24%.

With `CCCCCCc1ccc(NC(=O)Cc2csc(N=C(N)N)n2)cc1` [KHG23383, 2-(2-(diaminomethyleneamino)thiazole-4-yl)-N-(4-hexylphenyl)acetamide hydrochloride], the inhibition at 10 µM in series [1] (setting [2]) was 5.7%.

For the molecule `CCCCOc1ccc(NC(=O)Cc2csc(N=C(N)N)n2)cc1` [KHG23384, N-(4-butoxyphenyl)-2-(2-(diaminomethyleneamino)thiazole-4-yl)acetamide hydrochloride], in series [1] (setting [2]), the inhibition at 10 µM turned out to be 6.1%.

With `CCOC(=O)c1ccc(NC(=O)Cc2csc(N=C(N)N)n2)cc1` [KHG23385, ethyl 4-(2-(2-(diaminomethyleneamino)thiazole-4-yl)acetamido)benzoate hydrochloride], the inhibition at 10 µM in series [1] (setting [2]) came out at 5.9%.

`CCCCCCc1ccc(NC(=O)Cc2csc(N=C(N)N)n2)cc1.Cl` [KHG23386, 2-(2-(diaminomethyleneamino)thiazole-4-yl)-N-(4-hexylphenyl)acetamide hydrochloride]: the “% Inhibition [α1G, 10 μM) using FDSS6000” value in series [1] (setting [3]) turned out to be 4.5%.

Regarding `N#CCc1ccc(NC(=O)Cc2csc(N=C(N)N)n2)cc1` [KHG23387, N-(4-(cyanomethyl)phenyl)-2-(2-(diaminomethyleneamino)thiazole-4-yl)acetamide hydrochloride], the inhibition at 10 µM in series [1] (setting [2]) stood at 3.2%.

On to `NC(N)=Nc1nc(CC(=O)Nc2ccc(Oc3ccccc3)cc2)cs1` [KHG23389, 2-(2-(diaminomethyleneamino)thiazole-4-yl)-N-(4-phenoxyphenyl)acetamide hydrochloride], for which the inhibition at 10 µM in series [1] (setting [2]) was 25.4%.

On to `NC(N)=Nc1nc(CC(=O)Nc2c(Cl)cc(C(F)(F)F)cc2Cl)cs1` [KHG23391, 2-(2-(diaminomethyleneamino)thiazole-4-yl)-N-(2,6-dichloro-4-(trifluoromethyl)phenyl)acetamide hydrochloride], for which the inhibition at 10 µM in series [1] (setting [2]) turned out to be 0.8%.

`NC(N)=Nc1nc(CC(=O)Nc2ccc(F)c(F)c2F)cs1` [KHG23392, 2-(2-(diaminomethyleneamino)thiazole-4-yl)-N-(2,3,4-trifluorophenyl)acetamide hydrochloride]: in series [1] (setting [2]), the inhibition at 10 µM was found to be 22.7%.

In the case of `COc1ccc(NC(=O)Cc2csc(N=C(N)N)n2)c(C)c1` [KHG23393, 2-(2-(diaminomethyleneamino)thiazole-4-yl)-N-(4-methoxy-2-methylphenyl)acetamide hydrochloride], in series [1] (setting [2]), the inhibition at 10 µM amounted to 3.8%.

With `NC(N)=Nc1nc(CC(=O)Nc2cc(C(F)(F)F)cc(C(F)(F)F)c2)cs1` [KHG23394, N-(3,5-bis(trifluoromethyl)phenyl)-2-(2-(diaminomethyleneamino)thiazole-4-yl)acetamide hydrochloride], in series [1] (setting [2]), the inhibition at 10 µM is 41.5%.

As for `NC(N)=Nc1nc(CC(=O)Nc2c(Cl)c(Cl)cc(Cl)c2Cl)cs1` [KHG23395, 2-(2-(diaminomethyleneamino)thiazole-4-yl)-N-(2,3,5,6-tetrachlorophenyl)acetamide hydrochloride], the inhibition at 10 µM in series [1] (setting [2]) is 2.7%.

Regarding `Cc1ccc(NC(=O)Cc2csc(N=C(N)N)n2)cc1Cl.Cl` [KHG23397, N-(3-chloro-4-methylphenyl)-2-(2-(diaminomethyleneamino)thiazole-4-yl)acetamide hydrochloride], the “% Inhibition [α1G, 10 μM) using FDSS6000” value in series [1] (setting [3]) turned out to be 14.2%.

With `NC(N)=Nc1nc(CC(=O)Nc2c(Cl)cc(OC(F)(F)F)cc2Cl)cs1` [KHG23398, 2-(2-(diaminomethyleneamino)thiazole-4-yl)-N-(2,6-dichloro-4-(trifluoromethoxy)phenyl)acetamide hydrochloride], the inhibition at 10 µM in series [1] (setting [2]) was determined as 0.2%.

Regarding `COc1ccc(NC(=O)Cc2csc(N=C(N)N)n2)cc1F.Cl` [KHG23399, 2-(2-(diaminomethyleneamino)thiazole-4-yl)-N-(3-fluoro-4-methoxyphenyl)acetamide hydrochloride], in series [1] (setting [3]), the “% Inhibition [α1G, 10 μM) using FDSS6000” value was 3.4%.

Consider `NC(N)=Nc1nc(-c2ccc3[nH]c(=O)oc3c2)cs1` [KHG24022, 2-(4-(2-oxo-2,3-dihydrobenzo[d]oxazole-6-yl)thiazole-2-yl)guanidine hydrochloride], for which the inhibition at 10 µM in series [1] (setting [4]) came to 10.1%.

Turning to `NC(N)=Nc1nc(-c2ccc3ccccc3c2)cs1` [KHG24039, 2-(4-(naphthalene-2-yl)thiazole-2-yl)guanidine hydrochloride], in series [1] (setting [4]), the inhibition at 10 µM came to 21.9%.

On to `Cc1ccc(-c2csc(N=C(N)N)n2)cc1` [KHG24040, 2-(4-p-tolylthiazole-2-yl)guanidine hydrobromide], for which the inhibition at 10 µM in series [1] (setting [4]) came to 16.2%.

On to `COc1ccc(-c2csc(N=C(N)N)n2)cc1` [KHG24041, 2-(4-(4-methoxyphenyl)thiazole-2-yl)guanidine hydrobromide], for which the inhibition at 10 µM in series [1] (setting [4]) worked out at 13.3%.

With `Br.NC(N)=Nc1nc(-c2ccc([N+](=O)[O-])cc2)cs1` [KHG24375, 2-(4-(4-nitrophenyl)thiazole-2-yl)guanidine hydrobromide], the “% Inhibition [α1G, 10 μM) using FDSS6000” value in series [1] (Table 4 (Chemical Formula 3 series), hydrobromide) amounted to 19.90%.

As for `NC(N)=Nc1nc(-c2ccc([N+](=O)[O-])cc2)cs1` [KHG24389, 2-(4-(4-nitrophenyl)thiazole-2-yl)guanidine hydrobromide], the inhibition at 10 µM in series [1] (setting [4]) was determined as 21.9%.

On to `NC(N)=Nc1nc(-c2cc(C(F)(F)F)cc(C(F)(F)F)c2)cs1` [KHG24392, 2-(4-(3,5-bis(trifluoromethyl)phenyl)thiazole-2-yl)guanidine hydrobromide], for which, in series [1] (setting [4]), the inhibition at 10 µM came out at 12.9%.
